Results on ten compounds are retold here after patent publication US9101632B2, “Kinase inhibitors, prodrug forms thereof and their use in therapy” (AUCKLAND UNISERVICES LIMITED, priority 2009, dated 2015).

The subject of one data set is H1975 tumours. The note with it: H1975 xenograft, q3dx4, intraperitoneal; for Drug related deaths: lactate buffer pH 4; for Weight Loss Nadir (%): mean nadir relative to day 0 weight.
The subject of the next data set is A431 cells. Kind of data set: Inhibition of cellular proliferation (sulforhodamine B staining). The note with it: for A431 HCR (Hypoxic Cytotoxicity Ratio): fold change in intra-experimental IC50, 4 hours anoxia relative to oxic only. For orientation: Sulforhodamine B stains cellular protein and so reports cell mass.
The next data set concerns H1975 cells. The data set is described as above. The note with it: for H1975 HCR (Hypoxic Cytotoxicity Ratio): fold change in intra-experimental IC50, 4 hours anoxia relative to oxic only.
The next data set deals with SKOV3 cells. The data set is described as above. The note with it: for SKOV3 HCR (Hypoxic Cytotoxicity Ratio): fold change in intra-experimental IC50, 4 hours anoxia relative to oxic only.
The test system of a further data set is A431 tumours. The settings on record: A431 xenograft, q3dx4, intraperitoneal; for Drug related deaths: lactate buffer pH 4; for TGD (Tumour Growth Delay): % increase in time to RTV4 relative to control; for Weight Loss Nadir (%): mean nadir relative to day 0 weight. On all read-outs here: test concentration or dose not given here.
Where [1] appears, read: read-out: Cellular Growth Inhibition IC50 A431 Anoxic, initial 4 hours of the 24 hour exposure under anoxic conditions.
Where [2] appears, read: read-out: Cellular Growth Inhibition IC50 H1975 Anoxic, initial 4 hours of the 24 hour exposure under anoxic conditions.
The mark [3] stands for this setting: read-out: Cellular Growth Inhibition IC50 SKOV3 Anoxic, initial 4 hours of the 24 hour exposure under anoxic conditions.
[4] abbreviates: read-out: Cellular Growth Inhibition IC50 A431 Oxic, 24 hour exposure entirely under oxic conditions, washed, further 4 days.
Where [5] appears, read: read-out: Cellular Growth Inhibition IC50 SKOV3 Oxic, 24 hour exposure entirely under oxic conditions, washed, further 4 days.
The mark [6] stands for this setting: read-out: Cellular Growth Inhibition IC50 H1975 Oxic, 24 hour exposure entirely under oxic conditions, washed, further 4 days.

pIC50: −log10 of the molar value. Where two headings read alike, the source gives them in different places.
Wherever Drug related deaths is given: test concentration or dose not given here.
Wherever Weight Loss Nadir (%) is given: test concentration or dose not given here.

What is called pIC50 is the negative decadic logarithm of the IC50, by convention in mol/L. On to `CN(C)C/C=C/C(=O)Nc1cc2c(Nc3ccc(OCc4cccc(Cl)c4)c(Cl)c3)ncnc2cn1` [Compound 1, (2E)-N-(4-{3-chloro-4-[(3-chlorobenzyl)oxy]anilino}pyrido[3,4-d]pyrimidin-6-yl)-4-(dimethylamino)-2-butenamide], for which, in the data set with H1975 tumours, the Drug related deaths is 0. Also, the “Weight Loss Nadir (%)” value in the data set on H1975 tumours is listed as −3.6 ± 3.0%. The pIC50 is 6.66 with A431 cells (setting [1]), 6.06 in the data set on H1975 cells (setting [2]) and 6.16 in the data set with SKOV3 cells (setting [3]).

Consider `CN(C)C/C=C/C(=O)Nc1cc2c(Nc3ccc4c(cnn4Cc4cccc(F)c4)c3)ncnc2cn1` [Compound 2, (2E)-4-(dimethylamino)-N-(4-{[1-(3-fluorobenzyl)-1H-indazol-5-yl]amino}pyrido[3,4-d]pyrimidin-6-yl)-2-butenamide], for which the Drug related deaths in the data set with H1975 tumours was determined as 0. Moreover, the “Weight Loss Nadir (%)” value in the data set with H1975 tumours is given as −7.9 ± 0.6%. In the data set with A431 cells, the “A431 HCR (Hypoxic Cytotoxicity Ratio)” value turned out to be 1.0. The pIC50 in the data set with A431 cells (setting [1]) is 7.05; with H1975 cells (setting [2]), 6.00; in the data set with SKOV3 cells (setting [3]) it was 6.05.

`CN(C)C/C=C/C(=O)Nc1cc2c(Nc3ccc(Cl)c(Cl)c3)ncnc2cn1` [Compound 4, (2E)-N-[4-(3,4-dichloroanilino)pyrido[3,4-d]pyrimidin-6-yl]-4-(dimethylamino)-2-butenamide] had a Drug related deaths in the data set with H1975 tumours of 0. The “Weight Loss Nadir (%)” value with H1975 tumours was −9.7 ± 4.0%. For the same compound, in the data set with A431 cells, the “A431 HCR (Hypoxic Cytotoxicity Ratio)” value was 0.9. Besides, the pIC50 is 7.82 with A431 cells (setting [1]); 8.05 in the data set on A431 cells (setting [4]); 6.25 in the data set with H1975 cells (setting [2]); 6.26 with SKOV3 cells (setting [3]); 6.44 with SKOV3 cells (setting [5]). Moreover, in the data set on SKOV3 cells, the “SKOV3 HCR (Hypoxic Cytotoxicity Ratio)” value is listed as 0.9.

In the case of `CN(C)C/C=C/C(=O)Nc1cc2c(Nc3ccc(Br)c(Br)c3)ncnc2cn1` [Compound 7, (2E)-N-[4-(3,4-dibromoanilino)pyrido[3,4-d]pyrimidin-6-yl]-4-(dimethylamino)-2-butenamide], the Drug related deaths in the data set on H1975 tumours was 1. In addition, in the data set on H1975 tumours, the “Weight Loss Nadir (%)” value is listed as −4.9 ± 2.4%. Further, the “A431 HCR (Hypoxic Cytotoxicity Ratio)” value in the data set on A431 cells was 0.8. For the same compound, the pIC50 is 8.10 with A431 cells (setting [1]); 8.30 in the data set on A431 cells (setting [4]); 6.57 in the data set with H1975 cells (setting [2]); 6.74 in the data set with H1975 cells (setting [6]); 6.22 in the data set with SKOV3 cells (setting [3]); 6.43 in the data set on SKOV3 cells (setting [5]). Moreover, the “H1975 HCR (Hypoxic Cytotoxicity Ratio)” value in the data set on H1975 cells is given as 1.0.

In turn, `C#Cc1cc(Nc2ncnc3cnc(NC(=O)/C=C/CN(C)C)cc23)ccc1F` [Compound 8, (2E)-4-(dimethylamino)-N-[4-(3-ethynyl-4-fluoroanilino)pyrido[3,4-d]pyrimidin-6-yl]-2-butenamide] returned a Drug related deaths in the data set on H1975 tumours of 0. In addition, the “Weight Loss Nadir (%)” value with H1975 tumours is listed as −3.3 ± 3.0%. The pIC50 in the data set with A431 cells (setting [1]) is 6.92; with H1975 cells (setting [2]), 5.85; with SKOV3 cells (setting [3]) it was 5.74.

`C#Cc1cc(Nc2ncnc3cnc(NC(=O)/C=C/CN(C)C)cc23)ccc1Cl` [Compound 9, (2E)-N-[4-(4-chloro-3-ethynylanilino)pyrido[3,4-d]pyrimidin-6-yl]-4-(dimethylamino)-2-butenamide]: in the data set with A431 tumours, the Drug related deaths was 0, the “TGD (Tumour Growth Delay)” value is given as greater than 250% and the “Weight Loss Nadir (%)” value is −1.7 ± 1.7%. The pIC50 in the data set with A431 cells (setting [1]) was 7.80. For the same compound, the “H1975 HCR (Hypoxic Cytotoxicity Ratio)” value with H1975 cells is recorded as 0.5. Further, the pIC50 in the data set on H1975 cells (setting [2]) was 6.25. In the data set on SKOV3 cells (setting [3]), the pIC50 is 6.02.

For `Cn1cnc([N+](=O)[O-])c1C[N+](C)(C)C/C=C/C(=O)Nc1cc2c(Nc3ccc(OCc4cccc(Cl)c4)c(Cl)c3)ncnc2cn1` [Compound 12, (2E)-4-[(4-{3-chloro-4-[(3-chlorobenzyl)oxy]anilino}pyrido[3,4-d]pyrimidin-6-yl)amino]-N,N-dimethyl-N-[(1-methyl-4-nitro-1H-imidazol-5-yl)methyl]-4-oxo-2-buten-1-ammonium bromide], the Drug related deaths with H1975 tumours is 0. In addition, in the data set with H1975 tumours, the “Weight Loss Nadir (%)” value is −7.8 ± 0.6%. Also, the pIC50 in the data set on A431 cells (setting [1]) is 6.43; in the data set with A431 cells (setting [4]), 5.54; in the data set on H1975 cells (setting [2]) it was 5.62; in the data set with H1975 cells (setting [6]) it was 4.44; with SKOV3 cells (setting [3]), 5.09; with SKOV3 cells (setting [5]) it was 4.33. In addition, the “H1975 HCR (Hypoxic Cytotoxicity Ratio)” value in the data set on H1975 cells came to 14. For the same compound, in the data set with SKOV3 cells, the “SKOV3 HCR (Hypoxic Cytotoxicity Ratio)” value turned out to be 26.

As to `Cc1nc([N+](=O)[O-])c(C[N+](C)(C)C/C=C/C(=O)Nc2cc3c(Nc4ccc5c(cnn5Cc5cccc(F)c5)c4)ncnc3cn2)n1C` [Compound 14, (2E)-N-[(1,2-dimethyl-4-nitro-1H-imidazol-5-yl)methyl]-4-[(4-{[1-(3-fluorobenzyl)-1H-indazol-5-yl]amino}pyrido[3,4-d]pyrimidin-6-yl)amino]-N,N-dimethyl-4-oxo-2-buten-1-ammonium bromide], the pIC50 in the data set on A431 cells (setting [1]) is 7.20; with A431 cells (setting [4]) it was 5.24; in the data set on H1975 cells (setting [2]) it was 5.92; with H1975 cells (setting [6]), 4.70; with SKOV3 cells (setting [3]), 5.96; in the data set with SKOV3 cells (setting [5]), 4.49. In the data set with H1975 cells, the “H1975 HCR (Hypoxic Cytotoxicity Ratio)” value worked out at 26.

`C#Cc1cc(Nc2ncnc3cnc(NC(=O)/C=C/C[N+](C)(C)Cc4c([N+](=O)[O-])ncn4C)cc23)ccc1F` [Compound 20, (2E)-4-{[4-(3-ethynyl-4-fluoroanilino)pyrido[3,4-d]pyrimidin-6-yl]amino}-N,N-dimethyl-N-[(1-methyl-4-nitro-1H-imidazol-5-yl)methyl]-4-oxo-2-buten-1-ammonium bromide] gave a Drug related deaths in the data set on H1975 tumours of 0. Also, the “Weight Loss Nadir (%)” value with H1975 tumours was −4.4 ± 2.3%. Further, the pIC50 is 6.89 in the data set with A431 cells (setting [1]); 5.41 in the data set with A431 cells (setting [4]); 5.48 in the data set on H1975 cells (setting [2]); 3.93 in the data set with H1975 cells (setting [6]); 5.36 with SKOV3 cells (setting [3]); 3.71 in the data set with SKOV3 cells (setting [5]). Besides, the “SKOV3 HCR (Hypoxic Cytotoxicity Ratio)” value in the data set on SKOV3 cells was determined as 15.

In the data set on A431 tumours, `C#Cc1cc(Nc2ncnc3cnc(NC(=O)/C=C/C[N+](C)(C)Cc4c([N+](=O)[O-])ncn4C)cc23)ccc1Cl` [Compound 21, (2E)-4-{[4-(4-chloro-3-ethynylanilino)pyrido[3,4-d]pyrimidin-6-yl]amino}-N,N-dimethyl-N-[(1-methyl-4-nitro-1H-imidazol-5-yl)methyl]-4-oxo-2-buten-1-ammonium bromide] registered a Drug related deaths of 0. The “TGD (Tumour Growth Delay)” value in the data set with A431 tumours is listed as greater than 250%. Besides, the “Weight Loss Nadir (%)” value in the data set with A431 tumours is reported as −4.3 ± 2.3%. Further, the pIC50 is greater than 8.00 in the data set with A431 cells (setting [1]); 6.07 in the data set on A431 cells (setting [4]); 6.22 with H1975 cells (setting [2]); 4.74 with H1975 cells (setting [6]); 5.95 in the data set on SKOV3 cells (setting [3]); 4.33 in the data set on SKOV3 cells (setting [5]). Further, the “H1975 HCR (Hypoxic Cytotoxicity Ratio)” value with H1975 cells turned out to be 18.
